# In patent US20240230656A1, “Predicting Prognosis and Treatment Response of Breast Cancer Patients Using Expression and Cellular Localization of N-Myristoyltransferase” (Oncodrex Inc., priority 2021, published 2024):
# Assays:
# [1] = tested on: NMT1; assay: MCF7 gene expression of NMT following insulin stimulation or rapamycin treatment (NMT1); format: cell-based; conditions: MCF7 cells
# Excerpt: (§1) Example 9—MCF7 Gene Expression of NMT and WT1 Regulated Genes Following Insulin Stimulation
# (§2) NMT1 was also shown to bind to regions of DNA containing BASP1 regulated growth genes. […] This supports our prediction that phosphorylation is the leading PI3K/AKT/mTOR mediated regulatory mechanism responsible for NMT1 modulation.
# [2] = tested on: NMT2; assay: MCF7 gene expression of NMT following insulin stimulation or rapamycin treatment (NMT2); format: cell-based; conditions: MCF7 cells
# Excerpt: as §1, §2
substance,measurement,setting,value
insulin,NMT1 expression following treatment,[1],little change
same,NMT2 expression following treatment,[2],little change
